Source: publication PMC3626541, “A first in human, safety, pharmacokinetics, and clinical activity phase I study of once weekly administration of the Hsp90 inhibitor ganetespib (STA-9090) in patients with solid malignancies” (BMC Cancer, 2013)

Test system: patients with advanced solid tumors
Assay: Safety: adverse events (NCI CTCAE v3.0), ECG
Assay type: in vivo, human
Experimental: Patients’ demographics and medical history were recorded at baseline. Physical examination and PS were assessed at baseline and on Day 1 of each cycle. Adverse events (AEs), vital signs, hematology and chemistry values, and creatinine clearance were assessed at baseline and weekly during treatment. Toxicity was graded using National Cancer Institute Common Terminology Criteria for Adverse Events (NCI CTCAE), version 3.0. An electrocardiogram (ECG) was performed at baseline, before and after treatment on Days 1 and 15 of Cycles 1 and 2, and on Day 15 of even-numbered cycles thereafter. CT scans were done at baseline and every 8 weeks thereafter. Tumor response was assessed using Response Evaluation Criteria in Solid Tumors (RECIST, v1.0), with confirmation of responses performed at least 4 weeks later.

[1] = Cycle 1 Day 1 post-dose, patients with QTc prolongation
[2] = repeat ECG later on the same day

CC(C)c1cc(-c2n[nH]c(=O)n2-c2ccc3c(ccn3C)c2)c(O)cc1O [Ganetespib, 5-[2,4-dihydroxy-5-(1 methyl-ethyl)phenyl]-2,4 dihydro-4-(1-methyl-1H indol-5 yl)-3H-1,2,4 triazole-3-one]
Dizziness, AE of any grade, Number (%) of patients (All patients, n = 53): 6 (11.3) n (%)
Dry mouth, AE of any grade, Number (%) of patients (All patients, n = 53): 6 (11.3) n (%)
Dyspnea, AE of any grade, Number (%) of patients (All patients, n = 53): 9 (17) n (%)
Extremity pain, AE of any grade, Number (%) of patients (All patients, n = 53): 6 (11.3) n (%)
Fatigue, AE of any grade, Number (%) of patients (All patients, n = 53): 30 (56.6) n (%)
Fatigue, CTCAE Grade 3 and 4 AE, Number (%) of patients (All patients, n = 53): 6 (11.3) n (%)
Headache, AE of any grade, Number (%) of patients (All patients, n = 53): 9 (17) n (%)
Hyperbilirubinemia, CTCAE Grade 3 and 4 AE, Number (%) of patients (All patients, n = 53): 3 (5.7) n (%)
Hypokalemia, AE of any grade, Number (%) of patients (All patients, n = 53): 7 (13.2) n (%)
Hypokalemia, CTCAE Grade 3 and 4 AE, Number (%) of patients (All patients, n = 53): 2 (3.8) n (%)
Hyponatremia, CTCAE Grade 3 and 4 AE, Number (%) of patients (All patients, n = 53): 3 (5.7) n (%)
Hypophosphatemia, AE of any grade, Number (%) of patients (All patients, n = 53): 7 (13.2) n (%)
Hypophosphatemia, CTCAE Grade 3 and 4 AE, Number (%) of patients (All patients, n = 53): 4 (7.5) n (%)
Insomnia, AE of any grade, Number (%) of patients (All patients, n = 53): 10 (18.9) n (%)
Musculoskeletal chest pain, AE of any grade, Number (%) of patients (All patients, n = 53): 6 (11.3) n (%)
Nausea, AE of any grade, Number (%) of patients (All patients, n = 53): 18 (34) n (%)
Peripheral edema, AE of any grade, Number (%) of patients (All patients, n = 53): 9 (17) n (%)
Pneumonia, serious adverse events, Number (%) of patients (All patients, n = 53): 2 (3.8) n (%)
Rash, AE of any grade, Number (%) of patients (All patients, n = 53): 6 (11.3) n (%)
Serum amylase elevated, CTCAE Grade 3 and 4 AE, Number (%) of patients (All patients, n = 53): 2 (3.8) n (%)
Spinal cord compression, CTCAE Grade 3 and 4 AE, Number (%) of patients (All patients, n = 53): 2 (3.8) n (%)
Urinary tract infection, AE of any grade, Number (%) of patients (All patients, n = 53): 8 (15.1) n (%)
Vomiting, AE of any grade, Number (%) of patients (All patients, n = 53): 10 (18.9) n (%)
Weight decreased, AE of any grade, Number (%) of patients (All patients, n = 53): 7 (13.2) n (%)
ALT elevated, AE of any grade, Number (%) of patients (All patients, n = 53, first of two ALT elevated lines): 10 (18.9) n (%)
ALT elevated, AE of any grade, Number (%) of patients (All patients, n = 53, second of two ALT elevated lines): 6 (11.3) n (%)
QT [1]: 438 ms
QTc (QT with Bazett correction) [1]: 457 ms
Patients with dose reduction (all 53 patients): 7.5%
Patients with dose reduction and delay (all 53 patients): 7.5%
Patients with missed dose (all 53 patients): 30.2%
Patients with dose modification (all 53 patients, mainly due to adverse events): 45.3%
Patients who discontinued treatment due to drug-unrelated adverse events (all in cohort 1): 5.7%
Patients with Grade 3 or 4 AE (all patients): 67.9%
Patients with Grade 3 or 4 fatigue (all patients): 11.3%
Patients with diarrhea, Grade 1 and 2 (all patients): 88.7%
Patients with fatigue, Grade 1 and 2 (all patients): 56.6%
Patients with onset of diarrhea between days 1–7 (all patients): 75.5%
Patients with transient ALP elevation (all patients): 18.9%
Patients with transient ALT elevation (all patients): 11.3%
Patients with transient AST elevation (all patients): 17%
Patients with treatment-related anemia (all patients): 5.7%
Patients with treatment-related neutropenia (all patients): 5.7%
Patients with visual changes (all patients, mild and transient): 15%
Patients with abdominal pain (all patients, mild to moderate): 37.7%
Patients with nausea (all patients, mild to moderate): 34%
Patients with vomiting (all patients, mild to moderate): 18.9%
Patients with on-treatment SAEs (all patients, none considered treatment-related): 28.3%
Patients with Grade 2 or 3 hyberbilirubinemia (all patients, not considered study drug-related): 7.5%
Patients with Grade 1 or 2 blurred vision (doses of 35 mg/m^2, 114 mg/m^2 and 150 mg/m^2): Three patients
Patients with QTc prolongation (higher dose levels, Cycle 1 Day 1 post-dose): Three patients
Patients with treatment-related visual impairment (mild and transient): Two patients
Deaths during the study (none deemed treatment-related): Three deaths
Patients with QTc changes (not symptomatic, not considered clinically meaningful): 91%
Patients with Grade 1 transient visual impairment (one each at 216 and 259 mg/m^2, possibly related to study drug): 2 patients
QT [2]: 414 ms
QTc [2]: 433 ms
